Key:
APEC O78 [1] = assay: Comparative efficacy of GI-7 and sulfadimethoxine, floor trial; type: in vivo, commercial broiler chickens; parameters: Cumulative lesion score / Mean lesion score in Liver / Mean lesion score in Heart / Mean lesion score in Lung / Mean lesion score in Air sacs: scale not given here
Experimental: At day 13 (7 dpi), half of the chickens from each group, and at day 42 (slaughter age), 10 chickens from each group were necropsied and lesions and APEC loads were assessed as described above.

[2] = Quantification of residue in chicken tissues (LC-MS); type: in vivo, chickens
From the text: Chickens (n = 5/time point) from an experimental set-up as described above for the floor trial were sacrificed at 2 days (day 13; 2 DPLT), 5 days (day 16; 5 DPLT), and 31 days (day 42; 31 DPLT) post-last treatment. […] Tissue samples from chickens treated with SDM were used for comparison. […] Details of the methods are included in the supplemental material.

APEC O78 [3] = assay: Gene expression analysis by RT-qPCR in GI-7-treated APEC; type: cell-based, Escherichia coli; settings: 4 h treatment, vs untreated APEC
Experimental: We also quantitated the expression of other genes essential for maintaining OM integrity (bamA, mlaA, lolB, and pbgA) ([21]). […] An APEC O78 culture treated with 1% DMSO was used as a control. Total RNA was extracted using the RNeasy minikit (Qiagen), and 5 μg of purified RNA was used to synthesize cDNA using the RT^2 first strand kit (Qiagen). The RT-qPCR was performed using Maxima SYBR green/ROX qPCR master mix (Thermo Fisher) in a RealPlex^2 Mastercycler (Eppendorf) with a 55°C annealing temperature. The primers (Table S3) were designed using the PrimerQuest tool and obtained from Integrated DNA Technologies (IDT). The data were normalized to the housekeeping gene encoding glyceraldehyde-3-phosphate dehydrogenase (GAPDH), and relative fold changes were calculated using the cycle threshold (ΔΔCT) method ([79]). Two independent experiments were conducted.

LptE [4] = assay: Membrane protein SDS-PAGE and LC-MS/MS (emPAI of LptE); type: cell-based, Escherichia coli; settings: GI-7-treated APEC; untreated APEC 13.84
Experimental: A GI-7-treated culture of APEC O78 was prepared as described above, and the fractions of cytoplasmic and total membrane proteins were prepared using ultracentrifugation as described previously ([80]). […] The gel was stained with Coomassie blue R-250, the bands of ∼21.4 kDa (expected size of LptE) were excised from both untreated and GI-7-treated lanes of the gel, and in-gel digestion was performed as previously described ([81]). LC-MS/MS of the digested samples was performed on the Thermo Scientific Orbitrap Fusion MS instrument equipped with an EASY-Spray source operated in positive ion mode (CCIC, MS&P Facility, OSU). The Thermo Scientific UltiMate 3000 RSLCnano system containing an Acclaim PepMap 100 (75 μm by 2 cm) trap column and Easy-Spray nano separation column (PepMap RSLC C18, […], 100 Å, 75 μm by 150 mm; Thermo Scientific) was used for injection and elution of samples. For the proteomics database search, the E. coli Uniprot protein database with trypsin/P (selected as the enzyme) was used with the fragment mass tolerance set to 0.5 Da. Mascot Daemon (Matrix Science version 2.6.0) and Scaffold Proteome software were used for the MS/MS data analysis. […] The exponentially modified protein abundance index (emPAI) ([82]) was also calculated to compare the LptE levels between untreated and GI-7-treated gel fragments.

LptE [5] = assay: LptD/E immunoblot analysis; type: cell-based, Escherichia coli; settings: vs untreated APEC
Experimental: For immunoblot analysis, total membrane proteins (25 μg) resolved by SDS-PAGE under nonreducing (in the absence of β-mercaptoethanol) conditions ([37]) as described above were electrotransferred onto an Immun-Blot polyvinylidene difluoride (PVDF) membrane (Bio-Rad) and probed for LptD or LptE using anti-LptD (1:20,000) and anti-LptE (1:30,000) polyclonal rabbit antibodies (GenScript) and goat anti-rabbit IgG horseradish peroxidase (HRP)-conjugated secondary antibody (Sigma-Aldrich). Anti-LptD and anti-LptE antibodies were generated at GenScript using keyhole limpet hemocyanin (KLH)-conjugated peptides as the antigens (LptD epitope, […], and LptE epitope, […]). The epitopes were selected using the OptimumAntigen design tool (GenScript). The transferred membrane was developed with Clarity Western ECL substrate (Bio-Rad) and visualized in a FluorChem Q imager (ProteinSimple).

APEC = assay: LPS analysis in outer membrane of APEC; type: cell-based, Escherichia coli; settings: vs untreated APEC; total carbohydrate assay P < 0.0001
Experimental: Extracted LPS (normalized based on the OD600 before extraction) was separated on a 4-to-20% gradient SDS-PAGE gel and stained with Coomassie blue R-250 to visualize the LPS levels ([83]). In addition, LPS was also quantitated using a total carbohydrate assay kit (Cell Biolabs, Inc., San Diego, CA) following the manufacturer’s protocol. Two independent experiments with six replicates in each experiment were performed.

[6] = tested on: eukaryotic cells and wax moth larva; parameters: method as in PMID 30333507; settings: cited from earlier work
[7] = comparative efficacy trial, vs PC
[8] = comparative efficacy, GI-7 60 mg/liter, SDM 495.3 mg/liter, 7 dpi

Q: Which results are given for `COc1ccc(CNCc2cccc(C(F)(F)F)c2)cc1OCC(O)CN1CCCC1` (stereo not drawn) [GI-7]?
A: Reduction of severity of lesions (APEC O78 [1]; 60 mg/liter in drinking water, as given in the abstract): 29.5%; Mortality reduction compared to PC group (APEC O78 [1]; GI-7 60 mg/liter, SDM 495.3 mg/liter in drinking water, PC mortality 41.2%): 14.7%; Mean APEC load, Heart (APEC O78 [1]; comparative efficacy trial): 6.1 Log CFU/g tissues; Mean APEC load, Kidney (APEC O78 [1]; comparative efficacy trial): 6.1 Log CFU/g tissues; Mean APEC load, Liver (APEC O78 [1]; comparative efficacy trial): 5.7 Log CFU/g tissues; Mean APEC load, Lung (APEC O78 [1]; comparative efficacy trial): 6.1 Log CFU/g tissues; log reduction in APEC load, Heart (APEC O78 [1]; [7]): 1.8 Log CFU/g tissues; log reduction in APEC load, Kidney (APEC O78 [1]; [7]): 1.6 Log CFU/g tissues; log reduction in APEC load, Liver (APEC O78 [1]; [7]): 1.8 Log CFU/g tissues; log reduction in APEC load, Lung (APEC O78 [1]; [7]): 2.0 Log CFU/g tissues; Cumulative lesion score (APEC O78 [1]; comparative efficacy, 7 dpi): 9.8; Mean lesion score in Air sacs (APEC O78 [1]; [8]): 3.0; Mean lesion score in Heart (APEC O78 [1]; [8]): 3.2; Mean lesion score in Liver (APEC O78 [1]; [8]): 2.3; Mean lesion score in Lung (APEC O78 [1]; [8]): 1.3; % reduction in severity, Air sacs lesions (APEC O78 [1]; comparative efficacy, vs PC): 9.9%; % reduction in severity, Heart lesions (APEC O78 [1]; comparative efficacy, vs PC): 10.2%; % reduction in severity, Liver lesions (APEC O78 [1]; comparative efficacy, vs PC): 7.2%; % reduction in severity, Lung lesions (APEC O78 [1]; comparative efficacy, vs PC): 29.5%; Effect on body weight gain (BWG) and feed conversion ratio (FCR) (APEC O78 [1]; floor trial): No significant effect; Overall BWG (APEC O78 [1]; floor trial, day 42 minus day 1, NC 2,501.2): 2,432.4 g; Overall FCR (APEC O78 [1]; floor trial, NC 1.45): 1.45; Survival of chickens (APEC O78 [1]; floor trial, P < 0.1): increased the survival; Residue concentration in muscle ([2]; 2 DPLT): 0.04 ± 0.03 ppm/g tissue; Residue level in kidney ([2]; 2 DPLT): 0.7 ± 0.6 ppm/g tissue; Residue level in liver ([2]; 2 DPLT): 0.5 ± 0.4 ppm/g tissue; Residue concentration in muscle ([2]; 5 DPLT): 0.01 ± 0.01 ppm/g tissue; Residue level in kidney ([2]; 5 DPLT): 0.3 ± 0.3 ppm/g tissue; Residue level in liver ([2]; 5 DPLT): 0.2 ± 0.2 ppm/g tissue; Residue concentration in muscle ([2]; 31 DPLT): 0.0 ± 0.0 ppm/g tissue; Residue level in kidney ([2]; 31 DPLT): 0.0 ± 0.0 ppm/g tissue; Residue level in liver ([2]; 31 DPLT): 0.0 ± 0.0 ppm/g tissue; Residues in tissues relative to FDA limits for antibiotics ([2]; in vivo): below the limits permitted by the Food and Drug Administration; Downregulation of lptD gene expression (APEC O78 [3]; ~50% growth inhibition): 12.90 fold; Downregulation of bamA gene expression (APEC O78 [3]): 7.72 fold; Downregulation of lolB gene expression (APEC O78 [3]): 1.92 fold; Downregulation of lptA gene expression (APEC O78 [3]): 5.13 fold; Downregulation of lptC gene expression (APEC O78 [3]): 4.99 fold; Downregulation of lptE gene expression (APEC O78 [3]): 5.39 fold; Downregulation of mlaA gene expression (APEC O78 [3]): 9.94 fold; Downregulation of pbgA gene expression (APEC O78 [3]): 5.75 fold; emPAI of LptE (LptE [4]): 8.46; LptE level (immunoblot) (LptE [5]): decreased the LptE level; LPS level in OM of APEC (APEC): lower level of LPS; Toxicity to eukaryotic cells and wax moth larva [6]: minimally toxic

— publication PMC8557866, “Novel Small Molecule Growth Inhibitor Affecting Bacterial Outer Membrane Reduces Extraintestinal Pathogenic Escherichia coli (ExPEC) Infection in Avian Model” (Microbiology Spectrum, 2021)
